The test system of this assay is hamsters fed a high cholesterol diet. The experiment in a line: Measurement of lipid lowering effect in hamsters fed a high cholesterol diet. The format is in vivo, Male Golden Syrian hamsters. As to conditions: Mesocricetus auratus, po, 168 h, gavage once daily, 7 days. On the procedure:
Male Golden Syrian hamsters are divided into groups each consisting of 6 animals and fed a controlled high cholesterol diet (CE-2 containing 0.5% cholesterol; CLEA Japan, Inc.) for 28 days at most. From the start of feeding of the high cholesterol diet, the test compounds are administered by gavage once daily. For the administration, 0.2 mL of corn oil alone per 100 g (control group) or a solution (or suspension) of the test compound in corn oil at a dose of 0.01 to 10 mg/kg was given. At the same time, a group fed with a normal diet during the same study period is handled as a normal group. 4 hours after the last administration, whole blood is collected from the abdominal aorta under light anesthesia with ether and serum is separated from the blood. Further, livers are harvested, wet liver weights are measured, and part (about 0.5 g) of the harvested livers are extracted and weighed. 2-propanol in an amount 4 times the weight of the extracted livers are added, the resulted mixtures are homogenized, and the centrifuged supernatant are recovered and used as liver-derived samples.
Serum and liver TC concentrations are determined by an enzyme method using L-type Wako CHO•H (Wako Pure Chemical Industries Ltd.) or Cholestest CHO (Daiichi Pure Chemicals Co., Ltd.). Serum TG concentrations are determined by an enzyme method using L-type Wako TG•H (Wako Pure Chemical Industries Ltd.) or Autosera S TG-N (Daiichi Pure Chemicals Co., Ltd.) and a free glycerine elimination method. LDL-C concentrations are determined by a direct method using L-type Wako LDL-C•M (Wako Pure Chemical Industries Ltd.) or Cholestest LDL (Daiichi Pure Chemicals Co., Ltd.). Human serum was commonly used as a sample for the calibration curve for determinations of serum and liver TC concentrations, serum TG concentration, and serum LDL-C concentration. The effect of the test compound is shown by a suppression rate (%) of an increase in serum TC concentration due to feeding of the high cholesterol diet, a serum TG lowering rate (%), a suppression rate (%) of an increase in serum LDL-C concentration due to feeding of the high cholesterol diet, and a suppression rate (%) of an increase in liver TC concentration due to feeding of the high cholesterol diet calculated in accordance with the following equations.
In the Equation 2, A is the control group, B is the test compound group, and C is the normal group.
In the Equation 3, A is the control group, B is the test compound group, and C is the normal group.
In the Equation 4, A is the control group, B is the test compound group, and C is the normal group.
In the Equation 5, A is the control group, and B is the test compound group.
The following results were obtained from the study by this method on the effects of lowering serum TC, LDL-C, and TG, and liver TC in the hamsters fed with a high cholesterol diet which were given the test compounds for 7 days.
The compounds in which pyridyl of compound of example 51 and 55 was exchanged for phenyl, were used as comparative compound 1 and 2, respectively. In the same method as Example 112, the suppression rate (%) of an increase in serum TC concentration of comparative compound 1 and 2 were calculated.

Setting [1] is: read-out: liver TC lowering effect (suppression rate of an increase in liver TC concentration).
Where [2] appears, read: read-out: serum LDL-C lowering effect (suppression rate of an increase in serum LDL-C concentration).
The mark [3] stands for this setting: read-out: serum TC lowering effect (suppression rate of an increase in serum TC concentration).
[4] abbreviates: read-out: serum TG lowering effect (serum TG lowering rate).

Where two headings read alike, the source gives them in different places.

As to `N#Cc1cncc(-c2ccc(N3C(=O)[C@H](SC[C@H](O)c4ccc(F)cc4)[C@H]3c3ccc(O)cc3O)cc2)c1` [Example 63, 5-(4-{(3R,4R)-3-[(2R)-2-(4-fluorophenyl)-2-hydroxyethylthio]-4-(2,4-dihydroxyphenyl)-2-oxoazetidinyl}phenyl)pyridine-3-carbonitrile], the inhibition in vivo at 0.01 mg/kg reads like this: under setting [1], ≥ 30%; under setting [2], ≥ 30%; under setting [3], ≥ 30%. Moreover, the inhibition in vivo at 0.1 mg/kg is, setting by setting: under setting [2], ≥ 50%; under setting [3], ≥ 50%.

As for `O=C1[C@H](SC[C@H](O)c2ccc(F)cc2)[C@@H](c2ccc(O)cc2O)N1c1ccc(-c2cncc(C(F)(F)F)c2)cc1` [Example 76, (3R,4R)-3-[(2R)-2-(4-fluorophenyl)-2-hydroxyethylthio]-4-(2,4-dihydroxyphenyl)-1-[4-(5-trifluoromethylpyridin-3-yl)phenyl]azetidin-2-one], under setting [3], the inhibition in vivo at 0.01 mg/kg was ≥ 30%.

Take `COc1ccc([C@@H](O)CS[C@H]2C(=O)N(c3ccc(-c4cccnc4)cc3)[C@@H]2c2ccc(O)cc2)cc1` [Example 84, (3R,4R)-3-[(2R)-2-hydroxy-2-(4-methoxyphenyl)ethylthio]-4-(4-hydroxyphenyl)-1-[4-(pyridin-3-yl)phenyl]azetidin-2-one]: the inhibition in vivo at 0.1 mg/kg under setting [1] was ≥ 50%.

With `Cc1ccc(-c2ccc(N3C(=O)[C@H](SC[C@H](O)c4ccc(Cl)cc4)[C@H]3c3ccc(O)cc3O)cc2)cn1` [Example 98, (3R,4R)-3-[(2R)-2-(4-chlorophenyl)-2-hydroxyethylthio]-4-(2,4-dihydroxyphenyl)-1-[4-(6-methylpyridin-3-yl)phenyl]azetidin-2-one], the inhibition in vivo at 0.01 mg/kg under setting [2] is ≥ 30%. Regarding `O=Cc1cc(-c2ccc(N3C(=O)[C@H](SC[C@H](O)c4ccc(F)cc4)[C@H]3c3ccc(O)cc3)cc2)cs1` [Example 67, 4-(4-{(3R,4R)-3-[(2R)-2-(4-fluorophenyl)-2-hydroxyethylthio]-4-(4-hydroxyphenyl)-2-oxoazetidinyl}phenyl)thiophene-2-carbaldehyde], the inhibition in vivo at 0.1 mg/kg under setting [4] was ≥ 20%. Consider `CCNC(=O)c1cncc(-c2ccc(N3C(=O)[C@H](SC[C@H](O)c4ccc(Cl)cc4)[C@H]3c3ccc(O)cc3)cc2)c1` [Example 106, N-ethyl-5-(4-{(3R,4R)-3-[(2R)-2-(4-chlorophenyl)-2-hydroxyethylthio]-4-(4-hydroxyphenyl)-2-oxoazetidinyl}phenyl)pyridine-3-carboxamide], for which the inhibition in vivo at 0.1 mg/kg under setting [2] was ≥ 50%. Regarding `Cc1cc(O)ccc1[C@@H]1[C@@H](SC[C@H](O)c2ccc(F)cc2)C(=O)N1c1ccc(-c2cncnc2)cc1` [Example 100, (3R,4R)-3-[(2R)-2-(4-fluorophenyl)-2-hydroxyethylthio]-4-(4-hydroxy-2-methylphenyl)-1-[4-(pyrimidin-5-yl)phenyl]azetidin-2-one], the inhibition in vivo at 0.1 mg/kg is ≥ 50% under setting [2], ≥ 50% under setting [3] and ≥ 20% under setting [4]. For the molecule `O=Cc1cncc(-c2ccc(N3C(=O)[C@H](SC[C@H](O)c4ccc(F)cc4)[C@H]3c3ccc(O)cc3)cc2)c1` [Example 71, 5-(4-{(3R,4R)-3-[(2R)-2-(4-fluorophenyl)-2-hydroxyethylthio]-4-(4-hydroxyphenyl)-2-oxoazetidinyl}phenyl)pyridine-3-carbaldehyde], the inhibition in vivo at 0.1 mg/kg runs as follows: under setting [2], ≥ 50%; under setting [3], ≥ 50%. Regarding `COc1cc(Cl)ccc1[C@@H](O)CS[C@H]1C(=O)N(c2ccc(-c3cccnc3)cc2)[C@@H]1c1ccc(O)cc1` [Example 101, (3R,4R)-3-[(2R)-2-(4-chloro-2-methoxyphenyl)-2-hydroxyethylthio]-4-(4-hydroxyphenyl)-1-[4-(pyridin-3-yl)phenyl]azetidin-2-one], the inhibition in vivo at 0.1 mg/kg under setting [2] is ≥ 50% and the inhibition in vivo at 0.1 mg/kg under setting [3] was ≥ 50%.

On to `O=C1[C@H](SC[C@H](O)c2ccc(Cl)cc2)[C@@H](c2ccc(O)cc2)N1c1ccc(-c2cnccn2)cc1` [Example 104, (3R,4R)-3-[(2R)-2-(4-chlorophenyl)-2-hydroxyethylthio]-4-(4-hydroxyphenyl)-1-[4-(pyrazin-2-yl)phenyl]azetidin-2-one], for which the inhibition in vivo at 0.01 mg/kg is ≥ 30% under setting [2] and ≥ 30% under setting [3]. For the same molecule, the inhibition in vivo at 0.1 mg/kg under setting [1] is ≥ 50%. Regarding `O=C1[C@H](SC[C@H](O)c2ccc(Cl)cc2)[C@@H](c2ccc(O)cc2O)N1c1ccc(-c2cncc(F)c2)cc1` [Example 72, (3R,4R)-3-[(2R)-2-(4-chlorophenyl)-2-hydroxyethylthio]-4-(2,4-dihydroxyphenyl)-1-[4-(5-fluoropyridin-3-yl)phenyl]azetidin-2-one], the inhibition in vivo at 0.1 mg/kg was ≥ 50% under setting [2] and ≥ 50% under setting [3]. On to `O=C1[C@H](SC[C@H](O)c2ccc(Cl)cc2)[C@@H](c2ccc(O)cc2)N1c1ccc(-c2cncnc2)cc1` [Example 69, (3R,4R)-3-[(2R)-2-(4-chlorophenyl)-2-hydroxyethylthio]-4-(4-hydroxyphenyl)-1-[4-(pyrimidin-5-yl)phenyl]azetidin-2-one], for which the inhibition in vivo at 0.01 mg/kg runs as follows: under setting [2], ≥ 30%; under setting [3], ≥ 30%.

In the case of `O=C1[C@H](SC[C@H](O)c2ccc(F)cc2)[C@@H](c2ccc(O)c([N+](=O)[O-])c2)N1c1ccc(-c2cccnc2)cc1` [Example 42, (3R,4R)-3-[(2R)-2-(4-fluorophenyl)-2-hydroxyethylthio]-4-(4-hydroxy-3-nitrophenyl)-1-[4-(pyridin-3-yl)phenyl]azetidin-2-one], the inhibition in vivo at 0.1 mg/kg under setting [2] was ≥ 50%. In the case of `O=C1[C@H](SC[C@H](O)c2ccc(F)cc2F)[C@@H](c2ccc(O)cc2)N1c1ccc(-c2cccnc2)cc1` [Example 30, (3R,4R)-3-[(2R)-2-(2,4-difluorophenyl)-2-hydroxyethylthio]-4-(4-hydroxyphenyl)-1-[4-(pyridin-3-yl)phenyl]azetidin-2-one], the inhibition in vivo at 0.1 mg/kg runs as follows: under setting [1], ≥ 50%; under setting [2], ≥ 50%; under setting [3], ≥ 50%. For `N#Cc1cncc(-c2ccc(N3C(=O)[C@H](SC[C@H](O)c4ccc(Cl)cc4)[C@H]3c3ccc(O)cc3O)cc2)c1` [Example 65, 5-(4-{(3R,4R)-3-[(2R)-2-(4-chlorophenyl)-2-hydroxyethylthio]-4-(2,4-dihydroxyphenyl)-2-oxoazetidinyl}phenyl)pyridine-3-carbonitrile], the inhibition in vivo at 0.1 mg/kg under setting [2] is ≥ 50% and the inhibition in vivo at 0.1 mg/kg under setting [3] was ≥ 50%. With `O=C1[C@H](SC[C@H](O)c2ccc(Cl)cc2)[C@@H](c2ccc(O)cc2O)N1c1ccc(-c2cncc(Cl)c2)cc1` [Example 96, (3R,4R)-3-[(2R)-2-(4-chlorophenyl)-2-hydroxyethylthio]-4-(2,4-dihydroxyphenyl)-1-[4-(5-chloropyridin-3-yl)phenyl]azetidin-2-one], the inhibition in vivo at 0.01 mg/kg under setting [1] is ≥ 30%. Consider `O=C1[C@H](SC[C@H](O)c2ccc(Cl)s2)[C@@H](c2ccc(O)cc2)N1c1ccc(-c2cccnc2)cc1` [Example 46, (3R,4R)-3-[(2S)-2-(5-chlorothiophen-2-yl)-2-hydroxyethylthio]-4-(4-hydroxyphenyl)-1-[4-(pyridin-3-yl)phenyl]azetidin-2-one], for which the inhibition in vivo at 0.1 mg/kg under setting [4] is ≥ 20%.

For the origin of these results see patent publication US20100125059A1, “1-BIARYLAZETIDINONE DERIVATIVE” (Teijin Pharma Limited, priority 2007, published 2010).
